Results on 17 compounds are retold here after ChEMBL document CHEMBL1124460, “Synthesis and biological evaluation of [125I]- and [123I]-4-iododexetimide, a potent muscarinic cholinergic receptor antagonist” (J Med Chem, 1989).

Broadly, the IC50 is the midpoint of a concentration-inhibition curve. Read a high IC50 as weaker potency in that assay.

Test system in the first test: not listed separately
As to the kind of experiment: Ability (10 ug/kg) to inhibit binding of [125I]iododexetimide to 5-hydroxytryptamine receptor in mice. The note with it: Mus musculus.
Compound `O=C(c1ccc(F)cc1)C1CCN(CCn2c(=O)[nH]c3ccccc3c2=O)CC1` [KETANSERIN] had a half-maximal inhibitory concentration (IC50) of 130000 nM.

Test system in the next test: not listed separately
As to the kind of experiment: Ability (10 ug/kg) to inhibit binding of [125I]iododexetimide to adrenergic receptor in mice.
Conditions: not given
Compound `COc1cc2nc(N3CCN(C(=O)c4ccco4)CC3)nc(N)c2cc1OC` [PRAZOSIN] came in with a concentration for half-maximal inhibition (IC50) of 13000 nM.

The next test addresses Muscarinic acetylcholine receptor. In words: Displacement of [3H]N-methylscopolamine from rat brain homogenate. The test is classed as tissue-based.
Conditions: not given
(Loss of bound radioactivity is the signal in a displacement assay; it reports binding, not function.)
`O=C1CCC(c2ccccc2)(C2CCN(Cc3ccccc3F)CC2)C(=O)N1` (configuration not stated) displayed a 50% inhibitory concentration (IC50) of 32 nM.

On to `O=C1CCC(c2ccccc2)(C2CCN(Cc3ccccc3)CC2)C(=O)N1` (configuration not stated) [BENZETIMIDE], for which the 50% inhibitory concentration (IC50) amounted to 15 nM.

The compound `O=C1CCC(c2ccccc2)(C2CCN(Cc3ccccc3I)CC2)C(=O)N1` (configuration not stated) displayed an IC50 of 500 nM.

`O=C1CCC(c2ccccc2)(C2CCN(Cc3ccc(Cl)cc3)CC2)C(=O)N1` (configuration not stated): the IC50 was 27 nM.

`O=C1CCC(c2ccccc2)(C2CCN(Cc3ccccc3Br)CC2)C(=O)N1` (configuration not stated): the IC50 amounted to 500 nM.

`O=C1CCC(c2ccccc2)(C2CCN(Cc3ccc(I)cc3)CC2)C(=O)N1` (configuration not stated) returned a half-maximal inhibitory concentration (IC50) of 17 nM. Against the preceding compound, the IC50 is about 29-fold lower.

For the compound `O=C1CCC(c2ccccc2)(C2CCN(Cc3ccc(Br)cc3)CC2)C(=O)N1` (configuration not stated), the IC50 worked out at 38 nM.

`O=C1CCC(c2ccccc2)(C2CCN(Cc3cccc(F)c3)CC2)C(=O)N1` (configuration not stated) returned an IC50 of 21 nM.

`O=C1CCC(c2ccccc2)(C2CCN(Cc3ccc(F)cc3)CC2)C(=O)N1` (configuration not stated) returned an IC50 of 98 nM.

In turn, `O=C1CCC(c2ccccc2)(C2CCN(Cc3cccc(Cl)c3)CC2)C(=O)N1` (configuration not stated) displayed an IC50 of 26 nM.

Turning to `O=C1CCC(c2ccccc2)(C2CCN(Cc3cccc(Br)c3)CC2)C(=O)N1` (configuration not stated), the IC50 is listed as 24 nM.

For `O=C1CCC(c2ccccc2)(C2CCN(Cc3cccc(I)c3)CC2)C(=O)N1` (configuration not stated), the IC50 turned out to be 22 nM.

In turn, `O=C1CCC(c2ccccc2)(C2CCN(Cc3ccccc3Cl)CC2)C(=O)N1` (configuration not stated) returned an IC50 of 460 nM.

A further test shares this target. In words: Ability (10 ug/kg) to inhibit binding of [125I]iododexetimide to muscarinic receptor in mice.
Conditions: not given
In turn, `O=C1CC[C@@](c2ccccc2)(C2CCN(Cc3ccccc3)CC2)C(=O)N1` [DEXETIMIDE] displayed an IC50 of 3.3 nM.

For the compound `Cl.O=C1CCC(c2ccccc2)(C2CCN(Cc3ccccc3)CC2)C(=O)N1` (configuration not stated) [BENZETIMIDE HYDROCHLORIDE], the concentration for half-maximal inhibition (IC50) amounted to 8900 nM. Compared with the last compound, the IC50 is about 2700-fold higher.
